The values below come from paper PMC3395220 (Journal of Medicinal Chemistry, 2012).

Data set [1] relates to COLO-205 colon cancer cells. Description: Subcutaneous COLO-205 colon xenograft. The following applies: iv q2dx10 at 10 mg/Kg and q3dx10 at 20 mg/Kg. It counts as in vivo, athymic nu/nu mice.
For the next data set, the system named is SF-268. It counts as cell-based, human. The following applies: 10^Δ2-x, relative to compound 2.
For another data set, the system named is SK-MEL-2 melanoma cells. Description: Subcutaneous SK-MEL-2 melanoma xenograft. In kind it is in vivo, athymic nu/nu mice. The note with it: iv q2dx10 at 10 mg/Kg and q3dx10 at 20 mg/Kg.
The next data set has as its system BT-549. It counts as cell-based, human. The note with it: 10^Δ2-x, relative to compound 2.
Another data set concerns T-47D. It counts as cell-based, human. The following applies: 10^Δ2-x, relative to compound 2.
The subject of another data set is SNB-75. In kind it is cell-based, human. The note with it: 10^Δ2-x, relative to compound 2.
A further data set concerns SF-539. In kind it is cell-based, human. The following applies: 10^Δ2-x, relative to compound 2.
For a further data set, the system named is A498. In kind it is cell-based, human. The note with it: 10^Δ2-x, relative to compound 2.
For the next data set, the system named is HT29. It counts as cell-based, human. The following applies: 10^Δ2-x, relative to compound 2.
The conditions of data set [2]: CD-1, mouse, in vivo.
The subject of another data set is NCI-H460. In kind it is cell-based, human. The following applies: 10^Δ2-x, relative to compound 2.
The subject of another data set is HCT-15. In kind it is cell-based, human. The note with it: 10^Δ2-x, relative to compound 2.
The test system of a further data set is SN12C. It counts as cell-based, human. The note with it: 10^Δ2-x, relative to compound 2.
The subject of the next data set is NCI-H226. In kind it is cell-based, human. The following applies: 10^Δ2-x, relative to compound 2.
The next data set relates to SW-620. It counts as cell-based, human. The note with it: 10^Δ2-x, relative to compound 2.
Data set [3] is described as follows: Assays of toxicity, maximum tolerated dose. The note with it: in vivo.

Regarding `CO[C@@H]([C@@H]1Cc2cc3cc(O[C@H]4C[C@@H](O[C@H]5C[C@@H](O)[C@H](O)[C@@H](C)O5)[C@H](O)[C@@H](C)O4)c(C)c(O)c3c(O)c2C(=O)[C@H]1O[C@H]1C[C@@H](O[C@H]2C[C@@H](O[C@H]3C[C@H](O)[C@H](O)[C@@H](C)O3)[C@H](O)[C@@H](C)O2)[C@H](O)[C@@H](C)O1)[C@@H](O)C(C)=O` [Compound 9, demycarosyl-3D-β-D-digitoxosyl-mithramycin SK], the “tumor growth of COLO-205 colon xenografts” value in data set [1] is “reduced notably”. Moreover, the activity improvement factor is reported as 1.40 with SF-268; 0.94 in the data set with BT-549; 1.74 in the data set on T-47D; 0.93 with SNB-75; 1.30 in the data set with SF-539; 2.24 with A498. Also, the activity improvement factor is on record as 3.55 in the data set with HT29; 1.19 in the data set with NCI-H460; 1.00 in the data set on HCT-15; 1.70 with SN12C; 2.26 with NCI-H226; 1.30 with SW-620. Also, the “growth of SK-MEL-2 human melanoma xenografts” value with SK-MEL-2 melanoma cells was “markedly delayed”. In [2], the “fold less toxic than compound 3” value is on record as “about 2 fold”. Moreover, in data set [3], the “fold less toxicity than parental compound 1, single treatment” value is “about 32 fold”.
